Numbers after ± are expanded uncertainties.
Key:
[1] = xn = mol fraction of the nth substance listed; settings: for viscosity: Liquid
[2] = for viscosity: Liquid

O [water] + OCCO
[1], x2 = 0
Settings | surface tension liquid-gas [mN/m] | viscosity [mPa·s]
308.15 K | 71.02 ± 1.4 | 0.721 ± 0.048
313.15 K | 69.69 ± 1.4 | 0.6532 ± 0.045
318.15 K | 67.68 ± 1.4 | 0.59 ± 0.041
323.15 K | 66.12 ± 1.4 | 0.55 ± 0.039

OCCO [1,2-ethanediol] + O
[1]
Settings | surface tension liquid-gas, 308.15 K [mN/m] | surface tension liquid-gas, 313.15 K [mN/m] | surface tension liquid-gas, 318.15 K [mN/m] | surface tension liquid-gas, 323.15 K [mN/m] | viscosity, 308.15 K [mPa·s] | viscosity, 313.15 K [mPa·s] | viscosity, 318.15 K [mPa·s] | viscosity, 323.15 K [mPa·s]
x1 = 0.0145 | 69.73 ± 1.4 | 66.55 ± 1.4 | 65.92 ± 1.4 | 63.24 ± 1.3 | 0.7543 ± 0.05 | 0.7037 ± 0.047 | 0.6336 ± 0.043 | 0.5878 ± 0.041
x1 = 0.0312 | 67.83 ± 1.4 | 65.58 ± 1.4 | 63.92 ± 1.3 | 60.58 ± 1.3 | 0.8381 ± 0.055 | 0.764 ± 0.051 | 0.6785 ± 0.046 | 0.6321 ± 0.043
x1 = 0.0484 | 66.13 ± 1.4 | 64.09 ± 1.3 | 62.24 ± 1.3 | 59.62 ± 1.3 | 0.9241 ± 0.06 | 0.8372 ± 0.055 | 0.7424 ± 0.05 | 0.6876 ± 0.046
x1 = 0.0686 | 64.57 ± 1.3 | 62.51 ± 1.3 | 60.57 ± 1.3 | 57.96 ± 1.2 | 1.021 ± 0.065 | 0.9256 ± 0.06 | 0.7995 ± 0.053 | 0.7433 ± 0.05
x1 = 0.0883 | 63.27 ± 1.3 | 61.32 ± 1.3 | 59.21 ± 1.3 | 56.77 ± 1.2 | 1.133 ± 0.071 | 1.017 ± 0.065 | 0.8755 ± 0.057 | 0.8133 ± 0.053
x1 = 0.1107 | 62.14 ± 1.3 | 60.32 ± 1.3 | 58.41 ± 1.3 | 55.75 ± 1.2 | 1.266 ± 0.079 | 1.127 ± 0.071 | 0.9589 ± 0.062 | 0.8853 ± 0.058
x1 = 0.1621 | 60.02 ± 1.3 | 58.1 ± 1.2 | 56.25 ± 1.2 | 54.15 ± 1.2 | 1.574 ± 0.096 | 1.405 ± 0.087 | 1.184 ± 0.074 | 1.082 ± 0.068
x1 = 0.2247 | 57.51 ± 1.2 | 55.92 ± 1.2 | 54.36 ± 1.2 | 52.15 ± 1.2 | 2.036 ± 0.12 | 1.772 ± 0.11 | 1.48 ± 0.091 | 1.339 ± 0.083
x1 = 0.3032 | 56.03 ± 1.2 | 54.45 ± 1.2 | 52.66 ± 1.2 | 50.52 ± 1.1 | 2.662 ± 0.16 | 2.298 ± 0.14 | 1.888 ± 0.11 | 1.679 ± 0.1
x1 = 0.4035 | 54.03 ± 1.2 | 52.41 ± 1.2 | 50.65 ± 1.1 | 49.12 ± 1.1 | 3.512 ± 0.2 | 3.017 ± 0.18 | 2.468 ± 0.15 | 2.179 ± 0.13
x1 = 0.5366 | 52.47 ± 1.2 | 50.7 ± 1.1 | 49.34 ± 1.1 | 47.88 ± 1.1 | 4.7 ± 0.27 | 4.054 ± 0.23 | 3.283 ± 0.19 | 2.874 ± 0.17
x1 = 1 | 50.11 ± 1.1 | 48.73 ± 1.1 | 47.25 ± 1.1 | 46.41 ± 1.1 | 9.212 ± 0.45 | 7.961 ± 0.4 | 6.293 ± 0.34 | 5.447 ± 0.3

OCCO [1,2-ethanediol]
[2]
Settings | surface tension liquid-gas [mN/m] | viscosity [mPa·s]
308.15 K | 50.11 ± 1.1 | 9.212 ± 0.45
313.15 K | 48.73 ± 1.1 | 7.961 ± 0.4
318.15 K | 47.25 ± 1.1 | 6.293 ± 0.34
323.15 K | 46.41 ± 1.1 | 5.447 ± 0.3
